Paper PMC5895817, “A Bowman-Birk type chymotrypsin inhibitor peptide from the amphibian, Hylarana erythraea” (Scientific Reports, 2018)
Entries after “also recorded” stand apart in the source; their conditions may differ.

Experiments:
HMEC-1 = assay: MTT cell viability, normal cell line HMEC-1; format: cell-based; conditions: 24 h, 5 replicates, three independent experiments
Experimental: The cancer cell line H157 (ATCC-CRL-5802, ATCC, Teddington, Middlesex, UK) and PC-3 (ATCC-CRL-1435, ATCC, Teddington, Middlesex, UK) were cultured in RPMI-1640 culture medium (Invitrogen, Paisley, UK) containing 10% FBS and 1% Penicillin-Streptomycin. MCF-7 (ATCC-HTB-22, ATCC, Teddington, Middlesex, UK) was cultured in DMEM culture medium (Invitrogen, Paisley, UK) containing 10% FBS and 1% Penicillin-Streptomycin. The normal cell line HMEC-1 (ATCC-CRL-3243, ATCC, Teddington, Middlesex, UK) was cultured in MCDB131 medium (Gibco, Paisley, UK) containing 10% FBS (foetal bovine serum, obtained from Sigma-Aldrich, St. Louis, MO, USA), 1% Penicillin-Streptomycin (Invitrogen, Paisley, UK), epidermal growth factor (10 ng/mL), hydrocortisone (1 μg/mL, obtained from Sigma-Aldrich, St. Louis, MO, USA) and glutamine (10 mM). Cells were seeded into a 96-well plate and incubated for 24 h (37 °C, 5% CO2) followed by starvation using serum-free medium. Sample solutions were loaded on this plate which was further incubated for 24 h. The 3-(4,5-dimethylthiazol-2-yl)-2,5-diphenyltetrazolium bromide (MTT) solution (5 mg/ml, 10 μl/well) was utilized to form the formazan after a 4 h incubation. Cell-produced-formazan was dissolved in DMSO (100 μl/well). The absorbance was recorded by using an ELx808^TM Absorbance Microplate Reader at 570 nm (BioTek Instruments, Inc., Winooski, VT, USA). […]

horse erythrocytes = assay: Haemolysis activity test; format: cell-based; conditions: 2% suspension in PBS, 1–512 μM, 37 °C, 4 h, absorbance 550 nm, 5 replicates, three independent experiments
Experimental: Completely washed horse erythrocyte (TCS Biosciences Ltd., Buckingham, UK) suspension was prepared using phosphate-buffered saline (PBS). A series of peptide solutions were incubated with a 2% suspension of red blood cells at final concentrations of 1–512 μM at 37 °C for 4 h. After the incubation, 200 μl of each supernatant was transferred into a 96-well plate and the absorbance at 550 nm was measured with a Synergy HT plate reader (BioTek Instruments, Inc., Winooski, VT, USA). The BioTek’s Gen5^TM software was used to analyse the result. (Biolise BioTek EL808, Winooski, VT, USA). All the peptide concentrations and controls had 5 replicates in single 96-well plate and three independent experiments were performed.

trypsin = target: T1, trypsin (Bos taurus, UniProt P00760); assay: Trypsin/chymotrypsin inhibition assay (Morrison): trypsin; format: biochemical; conditions: substrate Phe-Pro-Arg-AMC, 37 °C, fluorescence, Morrison equation, each determination in duplicate, assay repeated three times
T1 construct: gene PRSS1
T1 sequence (P00760 24-246): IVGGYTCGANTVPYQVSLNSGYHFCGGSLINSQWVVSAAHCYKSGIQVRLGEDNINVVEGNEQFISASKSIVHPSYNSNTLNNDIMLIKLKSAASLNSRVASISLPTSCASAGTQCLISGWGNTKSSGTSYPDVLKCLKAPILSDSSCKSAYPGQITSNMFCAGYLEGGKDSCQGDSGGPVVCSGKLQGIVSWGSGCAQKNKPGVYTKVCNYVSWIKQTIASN
Experimental: (§1) Phe-Pro-Arg-AMC, Succinyl-Ala-Ala-Pro-Phe-AMC and Suc-Leu-Leu-Val-Tyr-AMC (Abcam, Cambridge, UK) were used as substrates for trypsin, chymotrypsin and human 20 S proteasome respectively. 10 μl trypsin/chymotrypsin working solution (1 µg/ml) were added to the wells of a micro-titre plate containing 180 μl substrate and various inhibitor solutions. 10 μl human 20 S proteasome (Biochem, Boston, MA, USA) working solution (7 nM) in 50 mM HEPES buffer containing 0.035% SDS, pH 7.5 was added to the well of a micro-titre plate containing 180 μl substrate solution and each of various inhibitor solution. Each determination was carried out in duplicate. The rate of hydrolysis of the trypsin/chymotrypsin substrate was monitored subsequently and continuously, at 37 °C, by measuring the rate of increase of fluorescence in a FLUOstar OPTIMA multi-well plate reader (BMG Labtech, Ortenberg, Germany). For the 20 S proteasome, the rate of hydrolysis of the substrate was monitored after a pre-incubation for 15 min, at 37 °C. […] Each assay was repeated three times.

chymotrypsin = chymotrypsin (Bos taurus, UniProt P00766); assay: Trypsin/chymotrypsin inhibition assay (Morrison): chymotrypsin; format: biochemical
Experimental: as §1

human 20 S proteasome = target: T2, human 20 S proteasome (Homo sapiens, UniProt P28074); assay: Human 20 S proteasome inhibition (chymotrypsin-like activity); format: biochemical; conditions: chymotrypsin-like activity of human 20 S proteasome (7 nM working solution); substrate Suc-Leu-Leu-Val-Tyr-AMC; 50 mM HEPES, 0.035% SDS, pH 7.5; pre-incubation 15 min, 37 °C; Morrison equation; duplicate, repeated three times
T2 construct: purchased Biochem, Boston, MA, USA
Experimental: as §1

Structure (SMILES) | cytotoxicity / growth inhibition on normal cells HMEC-1 (HMEC-1) | haemolysis (horse erythrocytes) | Ki (trypsin) [µM] | Ki (chymotrypsin) [µM] | Ki (human 20 S proteasome) [µM]
CC[C@H](C)[C@H](NC(=O)[C@@H]1CSSC[C@H](NC(=O)CNC(=O)[C@H](CCCNC(=N)N)NC(=O)[C@H](CC(C)C)NC(=O)[C@@H](NC(=O)[C@@H](N)[C@@H](C)O)C(C)C)C(=O)N[C@@H](Cc2c[nH]c3ccccc23)C(=O)N[C@@H]([C@@H](C)O)C(=O)N[C@@H](CCCCN)C(=O)N[C@@H](CO)C(=O)N[C@@H](Cc2ccccc2)C(=O)N2CCC[C@H]2C(=O)N2CCC[C@H]2C(=O)N[C@@H](CCCCN)C(=O)N2CCC[C@H]2C(=O)N1)C(N)=O [K^9-HECI, TVLRGCWTKSFPPKPCI-NH2] | low degree of cytotoxicity; also recorded: low degree of inhibition; also recorded: only slight cytotoxicity on HMEC-1 | low degree of haemolytic activity; also recorded: low degree of haemolysis | 0.79 ± 0.04 | 13.9 ± 1.09 | –
CC[C@H](C)[C@H](NC(=O)[C@@H]1CSSC[C@H](NC(=O)CNC(=O)[C@H](CCCNC(=N)N)NC(=O)[C@H](CC(C)C)NC(=O)[C@@H](NC(=O)[C@@H](N)[C@@H](C)O)C(C)C)C(=O)N[C@@H](Cc2c[nH]c3ccccc23)C(=O)N[C@@H]([C@@H](C)O)C(=O)N[C@@H](Cc2ccccc2)C(=O)N[C@@H](CO)C(=O)N[C@@H](Cc2ccccc2)C(=O)N2CCC[C@H]2C(=O)N2CCC[C@H]2C(=O)N[C@@H](CCCCN)C(=O)N2CCC[C@H]2C(=O)N1)C(N)=O [HECI, TVLRGCWTFSFPPKPCI-NH2] | – | – | – | – | 8.55 ± 1.84
